According to PubChem BioAssay AID196 (DTP/NCI, 2004):
Where “and” joins values, the source holds several entries; their conditions need not be identical. Equal entries are not always repeated. Inconclusive results and toxic doses are left out. Rule for the calls: active = survival T/C of 150% or more; inactive = T/C below 125% in these data.

System: BDF1 mice, intracerebral B16 melanoma, median survival T/C
Assay: NCI In Vivo Anticancer Drug Screen. Data for tumor model B16 Melanoma (intracerebral) in B6D2F1 (BDF1) mice
Details: endpoint: median survival time, higher = longer survival
Experimental: The antitumor activity of compounds was measured in mice bearing transplantable tumors. Survival or tumor size were measured and the results are expressed as the measurement made in the treated group (T) divided by the measurement made in the vehicle treated control group (C). The tumor model used in this assay is B16 Melanoma (intracerebral) in B6D2F1 (BDF1) mice

[1] = dose: 0.75 mg/kg/injection, schedule: Q01DX009 (ip), vehicle: saline
[2] = dose: 1.0 mg/kg/injection, schedule: Q01DX009 (ip), vehicle: saline
[3] = dose: 2.0 mg/kg/injection, schedule: Q01DX009 (ip), vehicle: saline
[4] = dose: 4.0 mg/kg/injection, schedule: Q01DX009 (ip), vehicle: saline
[5] = dose: 0.5 mg/kg/injection, schedule: Q01DX009 (ip), vehicle: saline

Measured: T/C

Nc1n[nH]c(N)n1
inactive: dose: 128.0 mg/kg/injection, schedule: Q01DX005 (ip), vehicle: saline 95 % of control and 111 % of control | dose: 256.0 mg/kg/injection, schedule: Q01DX005 (ip), vehicle: saline 97 % of control and 106 % of control | dose: 512.0 mg/kg/injection, schedule: Q01DX005 (ip), vehicle: saline 116 % of control and 103 % of control | dose: 1024.0 mg/kg/injection, schedule: Q01DX005 (ip), vehicle: saline 118 % of control and 93 % of control

O=C1C(NCCO)=C(N2CC2)C(=O)C(NCCO)=C1N1CC1
inactive: dose: 0.09 mg/kg/injection, schedule: Q01DX009 (ip), vehicle: saline 97 % of control | dose: 0.19 mg/kg/injection, schedule: Q01DX009 (ip), vehicle: saline 103 % of control | dose: 0.38 mg/kg/injection, schedule: Q01DX009 (ip), vehicle: saline 109 % of control | [1] 100 % of control

Nc1ncnc2c1ncn2C1OC(COP(=O)(O)O)C(O)C1O (centres undefined)
inactive: dose: 1600.0 mg/kg/injection, schedule: Q01DX009 (ip), vehicle: saline 99 % of control and 102 % of control

COc1cccc2c1C(=O)c1c(O)c3c(c(O)c1C2=O)C[C@@](O)(/C(C)=N/NC(=O)c1ccccc1)C[C@@H]3OC1CC(N)C(O)C(C)O1 (some centres undefined)
inactive: dose: 1.0 mg/kg/injection, schedule: Q01DX009 (ip), vehicle: saline with Tween-80 105 % of control | [2] 89 % of control | dose: 2.0 mg/kg/injection, schedule: Q01DX009 (ip), vehicle: saline with Tween-80 111 % of control | [3] 89 % of control and 95 % of control | dose: 4.0 mg/kg/injection, schedule: Q01DX009 (ip), vehicle: saline with Tween-80 109 % of control | [4] 93 % of control and 100 % of control | dose: 8.0 mg/kg/injection, schedule: Q01DX009 (ip), vehicle: saline 99 % of control

O=C1c2c(O)ccc(O)c2C(=O)c2c(NCCNCCO)ccc(NCCNCCO)c21
inactive: [5] 90 % of control | [2] 96 % of control | [3] 102 % of control

CC[C@]1(O)C[C@H]2CN(CCc3c([nH]c4ccccc34)[C@@](C(=O)OC)(c3cc4c(cc3OC)N(C=O)[C@H]3[C@@](O)(C(=O)OC)[C@H](OC(C)=O)[C@]5(CC)C=CCN6CC[C@]43[C@@H]65)C2)C1
inactive: dose: 0.02 mg/kg/injection, schedule: Q01DX009 (ip), vehicle: saline 96 % of control | dose: 0.03 mg/kg/injection, schedule: Q01DX009 (ip), vehicle: saline 96 % of control | dose: 0.06 mg/kg/injection, schedule: Q01DX009 (ip), vehicle: saline 92 % of control and 95 % of control | dose: 0.13 mg/kg/injection, schedule: Q01DX009 (ip), vehicle: saline 117 % of control and 108 % of control | dose: 0.26 mg/kg/injection, schedule: Q01DX009 (ip), vehicle: saline 100 % of control

CCCCN(C)N=Nc1c(C(N)=O)n[nH]c1C
inactive: dose: 32.0 mg/kg/injection, schedule: Q01DX005 (ip), vehicle: saline with Tween-80 121 % of control

COC(COC(=O)N1CCN(C=O)CC1)C1=C(N2CC2)C(=O)C(C)=C(N2CC2)C1=O (centres undefined)
inactive: [1] 103 % of control | dose: 1.5 mg/kg/injection, schedule: Q01DX009 (ip), vehicle: saline 105 % of control | dose: 3.0 mg/kg/injection, schedule: Q01DX009 (ip), vehicle: saline 114 % of control | dose: 6.0 mg/kg/injection, schedule: Q01DX009 (ip), vehicle: saline 86 % of control

N[C@@H](Cc1ccc(N(CCCl)CCCl)cc1)C(=O)O
inactive: [5] 95 % of control | dose: 0.5 mg/kg/injection, schedule: Q01DX009 (ip), vehicle: water 100 % of control | [2] 100 % of control | dose: 1.0 mg/kg/injection, schedule: Q01DX009 (ip), vehicle: water 104 % of control | [3] 120 % of control | dose: 2.0 mg/kg/injection, schedule: Q01DX009 (ip), vehicle: water 116 % of control | [4] 87 % of control

CN(C)N=Nc1ccc2c(c1)N(C)c1ccc(F)cc1S2
inactive: dose: 6.25 mg/kg/injection, schedule: Q01DX009 (ip), vehicle: other 90 % of control | dose: 12.5 mg/kg/injection, schedule: Q01DX009 (ip), vehicle: other 105 % of control | dose: 25.0 mg/kg/injection, schedule: Q01DX009 (ip), vehicle: other 112 % of control | dose: 50.0 mg/kg/injection, schedule: Q01DX009 (ip), vehicle: other 105 % of control | dose: 100.0 mg/kg/injection, schedule: Q01DX009 (ip), vehicle: other 112 % of control

CNc1nc(N(C)C)nc(N(C)C)n1
inactive: dose: 12.5 mg/kg/injection, schedule: Q01DX009 (ip), vehicle: saline 102 % of control and 106 % of control

CN(CO)c1nc(N(C)CO)nc(N(C)CO)n1
inactive: dose: 50.0 mg/kg/injection, schedule: Q01DX009 (ip), vehicle: Klucel (hydroxypropylcellulose) (HPC) 100 % of control and 104 % of control | dose: 100.0 mg/kg/injection, schedule: Q01DX009 (ip), vehicle: Klucel (hydroxypropylcellulose) (HPC) 120 % of control and 106 % of control
